Converted amounts (≈) assume the structure as drawn. “Also recorded” adds a separate entry of the source. Each block holds one compound with its values, some of them ahead of it.
What was measured:
B. cereus ATCC 11778 [1] = assay: Broth microdilution MIC; type: cell-based; details: Bacillus cereus, ATCC11778; 37 °C, 24 h
Method: (§1) Eight food-related microorganisms were used to evaluate the antimicrobial properties, including the Gram-positive Staphylococcus aureus ATCC 6538, Staphylococcus aureus ATCC 25923, Staphylococcus epidermidis ATCC 12228, Enterococcus faecalis ATCC 29212, Bacillus cereus ATCC 11778, and the Gram-negative Escherichia coli ATCC 8739, Escherichia coli ATCC 35218, and Proteus mirabilis ATCC 29245. The antibacterial assays were performed by the well diffusion and broth microdilution method (ISO 20776-1) in order to determine MIC. Test microorganisms were stored in freezing conditions and activated by cultivation in Nutrient broth at 37 °C for 24 h. […] Dilutions of the inoculum were cultured on nutrient agar supplemented with 5% sheep blood to verify the absence of contamination and the validity of the inoculum. Bacterial strains susceptible to compounds in the well diffusion assay were studied for their MIC values using 96-well microtiter plates. The experiments were conducted using the reference method for testing the in vitro activity of the antimicrobial agents where MIC is the lowest concentration of an antimicrobial agent that, under defined in vitro conditions, prevents the appearance of visible growth of the microorganism after its incubation overnight. A total of 250 μL of the bacterial suspension in sterile demineralized water was added to 11 mL Mueller-Hinton broth (MBH) to a concentration of 5 × 10^7 cells/mL. Compounds to be investigated were dissolved in MBH containing bacterial inoculum (5 × 10^4 CFU/well) to achieve the two-fold serial concentrations ranging between […] [30]. The microplates were covered with an adhesive seal and incubated at 37 °C for 24 h. DMSO combined with MHB was used as the negative control for each bacterial strain. The plates were visually read under normal laboratory lighting using a manual mirror viewer. Two replicates were conducted for each compound and each bacterial strain.

S. aureus ATCC 25923 [2] = assay: Broth microdilution MIC; type: cell-based; details: Staphylococcus aureus, ATCC25923; 37 °C, 24 h
Method: as §1

[3] = system: S. epidermidis ATCC 12228; assay: Broth microdilution MIC; type: cell-based; details: Staphylococcus epidermidis, ATCC12228; 37 °C, 24 h
Method: as §1

S. aureus ATCC 6538 = assay: Well diffusion test; type: cell-based; details: Staphylococcus aureus, ATCC6538; well 6 mm; gentamicin 10 μg, emodin 13.5 μg, rhein 14.2 μg; 37 °C, 24 h; read-out: Diameters of inhibition zone (mm), including diameter of well
Method: (§2) Eight food-related microorganisms were used to evaluate the antimicrobial properties, including the Gram-positive Staphylococcus aureus ATCC 6538, Staphylococcus aureus ATCC 25923, Staphylococcus epidermidis ATCC 12228, Enterococcus faecalis ATCC 29212, Bacillus cereus ATCC 11778, and the Gram-negative Escherichia coli ATCC 8739, Escherichia coli ATCC 35218, and Proteus mirabilis ATCC 29245. The antibacterial assays were performed by the well diffusion and broth microdilution method (ISO 20776-1) in order to determine MIC.
(§3) Test microorganisms were stored in freezing conditions and activated by cultivation in Nutrient broth at 37 °C for 24 h. Overnight cultures were used to obtain the inoculum by transferring an amount of cells from the broth to a test tube containing 5 mL of demineralized water until a turbidity of 1–2 × 10^8 colony-forming unit (CFU)/mL was achieved, equivalent to 0.5 McFarland standard. Dilutions of the inoculum were cultured on nutrient agar supplemented with 5% sheep blood to verify the absence of contamination and the validity of the inoculum.
(§4) Compounds were investigated by the agar well diffusion method. The plates containing Mueller Hinton agar medium were spread with 0.1 mL of the bacterial inoculum. The wells (6 mm diameter) were filled with 50 μL of the sample. The plates were incubated at 37 °C for 24 h. DMSO was used as a negative control and one standard antibiotic (gentamicin, 10 μg) as a positive control. Microbial inhibition was visually appreciated as the diameter of the inhibition zones surrounding the well and recorded in mm. All tests were run in triplicate for each combination of extract and microbial strain [26].

B. cereus ATCC 11778 [4] = assay: Well diffusion test; type: cell-based; details: Bacillus cereus, ATCC11778; well 6 mm; gentamicin 10 μg, emodin 13.5 μg, rhein 14.2 μg; 37 °C, 24 h; read-out: Diameters of inhibition zone (mm), including diameter of well
Method: as §2, §3, §4

S. aureus ATCC 25923 [5] = assay: Well diffusion test; type: cell-based; details: Staphylococcus aureus, ATCC25923; well 6 mm; gentamicin 10 μg, emodin 13.5 μg, rhein 14.2 μg; 37 °C, 24 h; read-out: Diameters of inhibition zone (mm), including diameter of well
Method: as §2, §3, §4

P. mirabilis ATCC 29245 = assay: Well diffusion test; type: cell-based; details: Proteus mirabilis, ATCC29245; well 6 mm; gentamicin 10 μg, emodin 13.5 μg, rhein 14.2 μg; 37 °C, 24 h; read-out: Diameters of inhibition zone (mm), including diameter of well
Method: as §2, §3, §4

E. coli ATCC 8739 = assay: Well diffusion test; type: cell-based; details: Escherichia coli, ATCC8739; well 6 mm; gentamicin 10 μg, emodin 13.5 μg, rhein 14.2 μg; 37 °C, 24 h; read-out: Diameters of inhibition zone (mm), including diameter of well
Method: as §2, §3, §4

E. faecalis ATCC 29212 = assay: Well diffusion test; type: cell-based; details: Enterococcus faecalis, ATCC29212; well 6 mm; gentamicin 10 μg, emodin 13.5 μg, rhein 14.2 μg; 37 °C, 24 h; read-out: Diameters of inhibition zone (mm), including diameter of well
Method: as §2, §3, §4

E. coli ATCC 35218 = assay: Well diffusion test; type: cell-based; details: Escherichia coli, ATCC35218; well 6 mm; gentamicin 10 μg, emodin 13.5 μg, rhein 14.2 μg; 37 °C, 24 h; read-out: Diameters of inhibition zone (mm), including diameter of well
Method: as §2, §3, §4

[6] = system: S. epidermidis ATCC 12228; assay: Well diffusion test; type: cell-based; details: Staphylococcus epidermidis, ATCC12228; well 6 mm; gentamicin 10 μg, emodin 13.5 μg, rhein 14.2 μg; 37 °C, 24 h; read-out: Diameters of inhibition zone (mm), including diameter of well
Method: as §2, §3, §4

Daphnia magna = assay: in vivo; details: after 48 h; tested 0.5 to 100 μM
Method: (§5) The Daphnia magna test was performed in 4 mL 12-tissue culture wells, using 10 daphnids/well, with each sample being tested in duplicate. […] All experiments were conducted in the dark, in a plant growth chamber (Sanyo MLR-351 H, San Diego, CA, USA) at 25 ± 1 °C [32, 33].
(§6) Statistical analysis of the inhibitory effect on SrtA and the Daphnia magna bioassay was performed using GraphPad Prism version 5.01 software (GraphPad Software, Inc., La Jolla, CA, USA). A student’s t-test (p < 0.05) was applied in order to analyze the results obtained from replicates. […] The inhibition (I %) and lethality percentage (L %) values were calculated and plotted against the logarithm of concentrations and the corresponding curves were calculated using the least squares fit method. […] Whenever the obtained results permitted, the upper and lower limits of the 95% confidence interval (95% CI) and the correlation coefficient (r^2) were calculated.

[7] = Solubility in water (observation during FRET testing)
SrtA [8] = biological target: T1, SrtA (Staphylococcus aureus, UniProt Q2FV99); assay: Sortase A activity assay (FRET, SensoLyte 520 kit); type: biochemical, S. aureus
T1 construct: purchased Anaspec, San Jose, CA, USA
Method: The inhibitory activity of all of the compounds was determined by quantifying the increase in fluorescence intensity upon a cleavage 5-FAM/QXL® FRET substrate using a SensoLyte® 520 Sortase A Activity Assay Kit (Anaspec, San Jose, CA, USA). According to kit protocol, reactions were performed in a 96-well plate, with each well containing 10 μL test compound solution, 40 μL enzyme solution, and 50 μL sortase substrate solution. All compounds were dissolved in dimethyl sulfoxide (DMSO) and diluted with sterilized distilled water. The final concentration of DMSO was 1%. Each compound diluted in buffer to the tested concentration and was checked for intrinsic fluorescence. According to the kit protocol, we used the enzyme without the test compound as a control, a 1% DMSO control, and a substrate control. We used the kit inhibitor, 4-hydroxymercuribenzoic acid (HMB), as the positive control. Reactions were carried out for 1 h at room temperature and analyzed fluorometrically (SpectraMAX Gemini XS, CA, USA) at Ex/Em = 490 nm/520 nm. All reported values are the means of triplicate assays.

SrtA [9] = biological target: T1, SrtA; details: cited from earlier work
tested bacteria strains = assay: Preliminary antibacterial screening by well diffusion test; type: cell-based; details: eight strains
Method: as §2, §3
Compounds were investigated by the agar well diffusion method. The plates containing Mueller Hinton agar medium were spread with 0.1 mL of the bacterial inoculum. […] Microbial inhibition was visually appreciated as the diameter of the inhibition zones surrounding the well and recorded in mm. […]

in vivo = details: in vivo
Method: as §5, §6

MIC (B. cereus ATCC 11778 [1]): 4 µg/mL (≈ 8.38 µM) | MIC (S. aureus ATCC 25923 [2]): 2 µg/mL (≈ 4.19 µM) | MIC [3]: 2 µg/mL (≈ 4.19 µM)
SMILES: CNC(C)C1CCC(N)C(OC2C(N)CC(N)C(OC3OCC(C)(O)C(NC)C3O)C2O)O1 (centres unmarked) [Gentamicin, reference compound]
zone of inhibition at 10 µg/disc (S. aureus ATCC 6538): 17 mm | zone of inhibition at 10 µg/disc (B. cereus ATCC 11778 [4]): 24 mm | zone of inhibition at 10 µg/disc (S. aureus ATCC 25923 [5]): 21 mm | zone of inhibition at 10 µg/disc (P. mirabilis ATCC 29245): 20 mm | zone of inhibition at 10 µg/disc (E. coli ATCC 8739): 21 mm | zone of inhibition at 10 µg/disc (E. faecalis ATCC 29212): 12 mm | zone of inhibition at 10 µg/disc (E. coli ATCC 35218): 20 mm | zone of inhibition at 10 µg/disc [6]: 29 mm

SMILES: O=c1c(O)c(-c2ccc(O)c(O)c2)oc2cc(O)cc(O)c12 [Quercetin]
Maximum lethality (Daphnia magna): ≤ 30% | Solubility in water (result in words) [7]: low solubility in water; also recorded: very low solubility in water | SrtA inhibition (result in words) (SrtA [8]): statistically significant SrtA inhibition | inhibition at 10 µM (SrtA [8]): 8.55% | Inhibition of SrtA enzymatic activity (result in words) (SrtA [9]): proven to inhibit SrtA enzymatic activity

SMILES: Cc1cc(O)c2c(c1)C(=O)c1cc(O)cc(O)c1C2=O [Emodin]
Antimicrobial effect (result in words) (tested bacteria strains): observable antimicrobial effect | MIC (B. cereus ATCC 11778 [1]): 16 µg/mL (≈ 59.2 µM) | MIC (S. aureus ATCC 25923 [2]): 8 µg/mL (≈ 29.6 µM) | MIC [3]: 8 µg/mL (≈ 29.6 µM) | zone of inhibition at 13.5 µg/disc (S. aureus ATCC 6538): 6 mm | zone of inhibition at 13.5 µg/disc (B. cereus ATCC 11778 [4]): 12 mm | zone of inhibition at 13.5 µg/disc (S. aureus ATCC 25923 [5]): 20 mm | zone of inhibition at 13.5 µg/disc (P. mirabilis ATCC 29245): 6 mm | zone of inhibition at 13.5 µg/disc (E. coli ATCC 8739): 6 mm | zone of inhibition at 13.5 µg/disc (E. faecalis ATCC 29212): 6 mm | zone of inhibition at 13.5 µg/disc (E. coli ATCC 35218): 6 mm | zone of inhibition at 13.5 µg/disc [6]: 14 mm | LC50 at 24 h (in vivo): 34.7 µM | LC50 at 48 h (in vivo): 24.2 µM | SrtA inhibition (result in words) (SrtA [8]): statistically significant SrtA inhibition | inhibition at 100 µM (SrtA [8]): 10.1%

SMILES: O=C(O)c1cc(O)c2c(c1)C(=O)c1cccc(O)c1C2=O [Rhein]
Antimicrobial effect (result in words) (tested bacteria strains): observable antimicrobial effect | MIC (B. cereus ATCC 11778 [1]): 32 µg/mL (≈ 113 µM) | MIC (S. aureus ATCC 25923 [2]): 64 µg/mL (≈ 225 µM) | MIC [3]: 16 µg/mL (≈ 56.3 µM) | zone of inhibition at 14.2 µg/disc (S. aureus ATCC 6538): 6 mm | zone of inhibition at 14.2 µg/disc (B. cereus ATCC 11778 [4]): 15 mm | zone of inhibition at 14.2 µg/disc (S. aureus ATCC 25923 [5]): 12 mm | zone of inhibition at 14.2 µg/disc (P. mirabilis ATCC 29245): 6 mm | zone of inhibition at 14.2 µg/disc (E. coli ATCC 8739): 6 mm | zone of inhibition at 14.2 µg/disc (E. faecalis ATCC 29212): 6 mm | zone of inhibition at 14.2 µg/disc (E. coli ATCC 35218): 6 mm | zone of inhibition at 14.2 µg/disc [6]: 30 mm | Solubility in water (result in words) [7]: low solubility in water | SrtA inhibition (result in words) (SrtA [8]): statistically significant SrtA inhibition | inhibition at 10 µM (SrtA [8]): 7.01%
